Twelve compounds from US20230364057A1, “BACTERIAL DNA GYRASE INHIBITORS AND METHODS OF USE THEREOF” (THE FLORIDA INTERNATIONAL UNIVERSITY BOARD OF TRUSTEES, priority 2022, published 2023) can be followed below.

For one assay, the system named is B. subtilis (ATCC 6633). The assay can be described thus: Minimum inhibitory concentration, broth microdilution. The following applies: Bacillus subtilis, ATCC6633, read-out: Minimum Inhibitory Concentration B.subtilis. In general terms: Dilution methods test growth across graded concentrations, often in twofold steps.
Assay [1] addresses T1, E. coli DNA gyrase (Escherichia coli (strain K12), UniProt P0AES4+P0AES6). The assay can be described thus: Agarose gel-based DNA gyrase inhibition assay. Type of assay: biochemical. Particulars: 50 µM of compounds. The protocol: 100 ng of DNA gyrase was used to supercoil the rx pAB1 in the presence of different concentrations of a gyrase inhibitor. […] Samples were analyzed by electrophoresis in 1% w/v agarose gels followed by ethidium bromide staining and photographed under UV light.

A further assay addresses Mtb DNA gyrase (Mycobacterium tuberculosis (strain ATCC 25618 / H37Rv), UniProt P9WG45+P9WG47). Nature of the assay: Mtb DNA gyrase inhibition assay (gel-based). Type of assay: biochemical. Particulars: Table 5, Mtb gyrase; read-out: IC50 (µM) Mtb. As to the method:
The IC50 against E. coli (A) and Mtb (C) gyrase were determined using the gel-based gyrase inhibition assays. The gyrase mediated DNA cleavage assays (B and D) were performed using pBR322. (A) 229 inhibits E. coli gyrase. Lane 1, rx pAB1. […] Lane 1, rx pAB1. […] 100 µM of CPDs were used. Symbols rx, nk, In, and sc represent relaxed, nicked, linear, and supercoiled DNA, respectively.
Agarose gel-based DNA gyrase inhibition assays were performed in 30 µL of 1 ×gyrase buffer (35 mM Tris-HCl, 24 mM KCl, 4 mM MgCl2, 2 mM DTT, 1.75 mM ATP, 0.1 mg/mL BSA, 6.5% glycerol, pH7.5) containing 400 ng of rx pAB1 at 37° C. 100 ng of DNA gyrase was used to supercoil the rx pAB1 in the presence of different concentrations of a gyrase inhibitor. After 15 minutes of incubation with the inhibitor at 37° C., all reactions were stopped with 1 µL of stop solution (3% SDS and 250 mM EDTA). Samples were analyzed by electrophoresis in 1% w/v agarose gels followed by ethidium bromide staining and photographed under UV light.

Another assay relates to MRSA. Nature of the assay: Minimum inhibitory concentration, broth microdilution. Particulars: for MIC: Staphylococcus aureus, MRSA.
The test system of the next assay is S. aureus (ATCC 14775). Described as above. The following applies: for MIC: Staphylococcus aureus.
A further assay deals with Mtb. Nature of the assay: Mtb whole cell assay (% inhibition, MIC). Type of assay: cell-based, Mycobacterium tuberculosis. The following applies: Mycobacterium tuberculosis; Table 5 (same values in Table 6 at 20 µM).
Assay [2] deals with T1, E. coli DNA gyrase. The assay can be described thus: biochemical. The assay is classed as biochemical.
Setting [3] is: read-out: Minimum Inhibitory Concentration S.aureus MRSA.
The mark [4] stands for this setting: ATCC14775, read-out: MIC (µM) SA.
The mark [5] stands for this setting: ATCC14775, read-out: Minimum Inhibitory Concentration S.aureus.
[6] abbreviates: IC50 (µM) EC, Table 5, E. coli gyrase.
Where [7] appears, read: IC50 (15-[…] µM), bin of Table 2.

≈ marks a conversion by molar mass, not a printed value. Where two headings read alike, the source gives them in different places. A value given as a limit tells only on which side of the number the result lay.

Protocol for S. aureus (ATCC 14775): Antibacterial minimum inhibitory concentrations (MICs) were obtained from three independent experiments using broth microdilution methods in 96-well plates according to Clinical and Laboratory Standards Institute guidelines. Cells were culture from singles colonies in MHIIB medium for 24 h at 37° C. in agitation (200 RPM). The cultures were then diluted using the same media to reach an OD600 of 0.1. Then, 50 µL of the diluted cultures were added to the plates holding 50 µL of serially diluted compounds in MHIIB. The plates were incubated at 37° C. for 20 h. The starting inoculum was fixated to 10^5 colony-forming units per ml.

For the compound `O=C(O)c1ccc(NN=C2c3cc(Br)ccc3NC2O)cc1` (stereo not drawn) [Compound 111], the MIC in the assay with B. subtilis (ATCC 6633) was 100 µM (≈ 36.2 µg/mL). Moreover, the “inhibition of E. coli DNA gyrase activities” value at E. coli DNA gyrase [1] is reported as “completely inhibited”.

Turning to `Cc1c(CC(=O)O)c(=O)oc2c(C)c3occ(-c4ccc(Br)cc4)c3cc12` [Compound 117], the concentration for half-maximal inhibition (IC50) at Mtb DNA gyrase amounted to 50 µM; against E. coli DNA gyrase [2] (setting [6]), 15.7 µM. Besides, the MIC in the assay on MRSA (read-out: MIC (µM) MRSA) was 1.6 µM (≈ 0.684 µg/mL); with MRSA (setting [3]) it was 1.56 µM (≈ 0.667 µg/mL); with S. aureus (ATCC 14775) (setting [4]) it was 1.6 µM (≈ 0.684 µg/mL); in the assay on S. aureus (ATCC 14775) (setting [5]), 1.56 µM (≈ 0.667 µg/mL). On E. coli DNA gyrase [1], the “inhibition of E. coli DNA gyrase activities” value is on record as “completely inhibited”. In the assay with Mtb, this compound yielded an inhibition at 20 µM of 24.7%.

On to `Cc1c(C)c2cc3c(-c4ccc(Br)cc4)coc3c(C)c2oc1=O` [Compound 118], for which the IC50 at Mtb DNA gyrase and against E. coli DNA gyrase [2] (setting [6]) was more than 200 µM each time. Besides, the MIC with MRSA (read-out: MIC (µM) MRSA) and in the assay on S. aureus (ATCC 14775) (setting [4]) was more than 200 µM throughout. In the assay with Mtb, this compound gave an inhibition at 20 µM of 21.8%.

With `Cc1c(CCC(=O)O)c(=O)oc2c(C)c3occ(-c4ccc(Cl)cc4)c3cc12` [Compound 120], the IC50 turned out to be 33 µM on Mtb DNA gyrase and 7.9 µM against E. coli DNA gyrase [2] (setting [6]). In addition, the MIC came out at 1.6 µM (≈ 0.635 µg/mL) with MRSA (read-out: MIC (µM) MRSA), 1.56 µM (≈ 0.619 µg/mL) in the assay on MRSA (setting [3]), 1.6 µM (≈ 0.635 µg/mL) with S. aureus (ATCC 14775) (setting [4]) and 1.56 µM (≈ 0.619 µg/mL) in the assay with S. aureus (ATCC 14775) (setting [5]). In addition, the “inhibition of E. coli DNA gyrase activities” value against E. coli DNA gyrase [1] was “completely inhibited”. In the assay with Mtb, this compound came in with an inhibition at 20 µM of 18.7%.

With `Cc1coc2cc3oc(=O)c(CCC(=O)O)c(C)c3cc12` [Compound 122], the IC50 at Mtb DNA gyrase and on E. coli DNA gyrase [2] (setting [6]) was more than 200 µM each time. Besides, the MIC in the assay with MRSA (read-out: MIC (µM) MRSA) and with S. aureus (ATCC 14775) (setting [4]) was more than 200 µM each time. The “inhibition of E. coli DNA gyrase activities” value at E. coli DNA gyrase [1] is given as “potently inhibited”. The compound also came in with an inhibition at 20 µM in the assay with Mtb of 15.7%.

`Cc1c(CCC(=O)O)c(=O)oc2c(C)c3occ(-c4ccc(N5CCCC5)cc4)c3cc12` [Compound 125]: the IC50 on Mtb DNA gyrase came to 55 µM; at E. coli DNA gyrase [2] (setting [6]), 4.9 µM. Further, the “growth of MRSA” value in the assay on MRSA was “did not inhibit the growth”. Moreover, the entries for the “inhibition of E. coli DNA gyrase activities” value on E. coli DNA gyrase [1] and on E. coli DNA gyrase [2] were “completely inhibited” and “potently inhibited”, respectively. In the assay with S. aureus (ATCC 14775), the “growth of S. aureus” value is “did not inhibit the growth”. In the assay on S. aureus (ATCC 14775) (setting [4]), the MIC is more than 200 µM. In the assay with Mtb, this compound yielded an inhibition at 20 µM of 10.2%.

`O=C(O)c1ccc(/N=N/C2C(O)=Nc3ccc(Cl)cc32)cc1` (stereo not drawn) [Compound 126]: the MIC in the assay with B. subtilis (ATCC 6633), in the assay with MRSA (setting [3]) and with S. aureus (ATCC 14775) (setting [5]) was 100 µM (≈ 31.6 µg/mL) throughout. In addition, on E. coli DNA gyrase [1], the “inhibition of E. coli DNA gyrase activities” value was “completely inhibited”.

As to `Cc1ccc2nc3n(c2c1C)C/C(=C/c1ccc(-c2ccccc2C(=O)O)o1)[S+]3[O-]` (stereo not drawn) [Compound 155], the results for the MIC in the assay with B. subtilis (ATCC 6633), with MRSA (setting [3]) and with S. aureus (ATCC 14775) (setting [5]) were 50 µM (≈ 20.9 µg/mL), 50 µM (≈ 20.9 µg/mL) and 100 µM (≈ 41.8 µg/mL), respectively. In addition, at E. coli DNA gyrase [1], the “inhibition of E. coli DNA gyrase activities” value was “completely inhibited”. On E. coli DNA gyrase [2] (setting [7]), the IC50 is 15 to 25 µM.

`O=C(O)C(Cc1ccccc1)N1C(=O)/C(=C\C=C\c2ccco2)SC1=S` (stereo not drawn) [Compound 157]: the MIC with B. subtilis (ATCC 6633), with MRSA (setting [3]) and with S. aureus (ATCC 14775) (setting [5]) was 200 µM (≈ 77.1 µg/mL) throughout. For the same compound, the “inhibition of E. coli DNA gyrase activities” value on E. coli DNA gyrase [1] is reported as “completely inhibited”.

Turning to `O=[N+]([O-])c1cc(/C=N/Nc2nc3ccccc3[nH]2)c(O)cc1O` [Compound 159], the MIC with B. subtilis (ATCC 6633) was determined as 200 µM (≈ 62.7 µg/mL); in the assay with MRSA (setting [3]) it was 100 µM (≈ 31.3 µg/mL); in the assay with S. aureus (ATCC 14775) (setting [5]), 50 µM (≈ 15.7 µg/mL). On E. coli DNA gyrase [1], the “inhibition of E. coli DNA gyrase activities” value is recorded as “completely inhibited”.

On to `CN1C(=O)C(=Cc2ccc(Sc3ccccc3)o2)C(=O)N(C)C1=S` [Compound 161], for which, in the assay on B. subtilis (ATCC 6633), the MIC is 200 µM (≈ 71.7 µg/mL). For the same compound, at E. coli DNA gyrase [1], the “inhibition of E. coli DNA gyrase activities” value is “completely inhibited”. In addition, at E. coli DNA gyrase [2] (setting [7]), the IC50 was in the range of 15 to 25 µM.

Regarding `COc1cc(C(=O)Nc2scc(-c3ccc(Br)cc3)c2C(=O)O)cc(OC)c1OC` [Compound 189], the MIC in the assay on B. subtilis (ATCC 6633) worked out at 100 µM (≈ 49.2 µg/mL). Further, at E. coli DNA gyrase [1], the “inhibition of E. coli DNA gyrase activities” value is “completely inhibited”. The compound also registered an IC50 against E. coli DNA gyrase [2] (IC50 ([…]-50 µM), bin of Table 2) of 25 to 50 µM.

In general, IC50 refers to the concentration that gives 50% inhibition. One may read the inhibition as the percentage by which the read-out fell short of the control. Low readings indicate little suppression, high ones strong suppression.
